Patent US11685732B2, “MYST family histone acetyltransferase inhibitors” (Epizyme, Inc., priority 2017, dated 2023)
Like-named read-outs stand apart in the source and are kept apart here.

Assays:
KAT-5 = KAT-5 (Homo sapiens (Human), UniProt Q92993); assay: KAT-5 biochemical inhibition assay (SAMDI mass spectrometry)
Summary of the method: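 Acetylation of 1 μM peptide by 9 nM enzyme with 0.5 μM acetyl-CoA (final) was run 90 min at 25° C in Tris pH 8.0 buffer with DTT, after compound preincubation at 2% DMSO. Formic acid stopped the reaction, and product was quantified by SAMDI mass spectrometry to derive IC50.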

KAT-6A = KAT-6A (Homo sapiens (Human), UniProt Q92794); assay: KAT-6A biochemical inhibition assay (SAMDI mass spectrometry)
Chain of KAT-6A (Q92794 other isoform, or with tags, fused parts or gaps): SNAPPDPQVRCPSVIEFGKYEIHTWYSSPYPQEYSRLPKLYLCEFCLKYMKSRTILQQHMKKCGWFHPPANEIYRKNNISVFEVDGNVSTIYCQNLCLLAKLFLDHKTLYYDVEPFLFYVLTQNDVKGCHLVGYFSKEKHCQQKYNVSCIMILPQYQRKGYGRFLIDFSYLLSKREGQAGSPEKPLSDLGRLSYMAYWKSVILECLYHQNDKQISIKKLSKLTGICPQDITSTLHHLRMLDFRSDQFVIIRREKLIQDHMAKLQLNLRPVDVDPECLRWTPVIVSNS
Summary of the method: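 IC50 values came from SAMDI time-of-flight mass spectrometry after formic acid quench (0.5% final). Acetylation ran 90 min at 25 °C with 1 μM acetyl coenzyme A and 1 μM peptide substrate, following compound pre-incubation with 12.5 nM KAT-6A in Tris buffer pH 8.0 containing DTT, 2% DMSO final.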

KAT-7 = KAT-7 (Homo sapiens (Human), UniProt O95251); assay: KAT-7 biochemical inhibition assay (SAMDI mass spectrometry)
Chain of KAT-7 (O95251 other isoform, or with tags, fused parts or gaps): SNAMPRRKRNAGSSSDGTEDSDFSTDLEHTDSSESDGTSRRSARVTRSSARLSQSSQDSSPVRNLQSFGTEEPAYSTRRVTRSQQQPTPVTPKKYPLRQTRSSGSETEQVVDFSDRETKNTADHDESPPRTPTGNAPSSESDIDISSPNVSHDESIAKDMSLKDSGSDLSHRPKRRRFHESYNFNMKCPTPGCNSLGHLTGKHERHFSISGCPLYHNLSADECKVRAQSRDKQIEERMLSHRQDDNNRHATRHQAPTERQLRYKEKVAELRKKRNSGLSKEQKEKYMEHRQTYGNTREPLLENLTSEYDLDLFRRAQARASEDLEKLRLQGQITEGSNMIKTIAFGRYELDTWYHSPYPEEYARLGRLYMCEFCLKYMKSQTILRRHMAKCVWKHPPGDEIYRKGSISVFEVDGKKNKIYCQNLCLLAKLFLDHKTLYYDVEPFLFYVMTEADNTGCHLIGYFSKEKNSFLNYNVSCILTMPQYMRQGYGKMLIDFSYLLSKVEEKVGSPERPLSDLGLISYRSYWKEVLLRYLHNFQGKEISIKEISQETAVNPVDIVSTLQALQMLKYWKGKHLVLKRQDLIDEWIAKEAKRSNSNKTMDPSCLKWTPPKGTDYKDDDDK
Summary of the method: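 Read-out was SAMDI time-of-flight MS of formic acid-quenched reactions (0.5% final). Compound dilutions (2% DMSO final) were pre-incubated with 6 nM KAT-7 in 50 mM Tris pH 8.0 with 1 mM DTT, then given 1 μM peptide substrate and 2 μM acetyl-CoA for 120 min at 25 °C. IC50 values were derived.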

KAT-8 = KAT-8 (Homo sapiens (Human), UniProt Q9H7Z6); assay: KAT-8 biochemical inhibition assay (SAMDI mass spectrometry)
Chain of KAT-8 (Q9H7Z6 other isoform, or with tags, fused parts or gaps): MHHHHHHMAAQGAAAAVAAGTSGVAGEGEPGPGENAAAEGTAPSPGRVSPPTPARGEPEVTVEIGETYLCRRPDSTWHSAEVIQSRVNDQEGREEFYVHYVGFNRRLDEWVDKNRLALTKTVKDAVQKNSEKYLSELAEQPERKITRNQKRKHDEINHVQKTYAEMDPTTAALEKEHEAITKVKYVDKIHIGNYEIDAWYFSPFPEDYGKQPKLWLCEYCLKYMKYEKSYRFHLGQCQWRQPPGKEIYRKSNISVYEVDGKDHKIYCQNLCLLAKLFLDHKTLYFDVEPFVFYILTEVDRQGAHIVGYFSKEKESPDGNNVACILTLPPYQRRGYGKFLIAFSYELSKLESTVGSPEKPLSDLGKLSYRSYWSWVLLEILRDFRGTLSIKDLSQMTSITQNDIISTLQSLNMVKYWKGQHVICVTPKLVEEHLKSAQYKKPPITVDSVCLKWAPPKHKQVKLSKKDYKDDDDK
Summary of the method: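 Acetylation of 1 μM peptide substrate with 5 μM acetyl-CoA by 12.5 nM enzyme, compound pre-incubated, 2% DMSO, Tris pH 8.0 buffer with DTT, 25 °C for 90 min. Quench with 0.5% formic acid; product read by SAMDI mass spectrometry to give IC50.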

Chain of KAT-5 (Q92993 other isoform, or with tags, fused parts or gaps): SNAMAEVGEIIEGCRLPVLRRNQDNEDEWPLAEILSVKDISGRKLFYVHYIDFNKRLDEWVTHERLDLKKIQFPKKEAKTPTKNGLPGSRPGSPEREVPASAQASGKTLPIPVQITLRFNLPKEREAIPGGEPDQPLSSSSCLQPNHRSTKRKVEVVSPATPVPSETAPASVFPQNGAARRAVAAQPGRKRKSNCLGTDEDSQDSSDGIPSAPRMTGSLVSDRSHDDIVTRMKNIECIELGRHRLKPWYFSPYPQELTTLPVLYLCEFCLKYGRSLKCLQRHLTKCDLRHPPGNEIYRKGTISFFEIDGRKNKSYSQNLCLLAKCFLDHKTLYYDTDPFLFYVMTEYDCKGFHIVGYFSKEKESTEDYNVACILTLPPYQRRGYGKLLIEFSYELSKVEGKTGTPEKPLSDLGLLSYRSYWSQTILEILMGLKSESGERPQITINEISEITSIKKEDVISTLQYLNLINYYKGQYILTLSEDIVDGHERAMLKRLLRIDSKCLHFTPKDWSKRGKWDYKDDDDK

SMILES	IC50 (KAT-5) [µM]	IC50 (KAT-6A) [µM]	IC50 (KAT-7) [µM]	IC50 (KAT-8) [µM]	IC50 (KAT-5; Table 6, comparative compounds) [µM]	IC50 (KAT-6A; Table 6, comparative compounds) [µM]	IC50 (KAT-7; Table 6, comparative compounds) [µM]	IC50 (KAT-8; Table 6, comparative compounds) [µM]
Cn1cnc(-c2cc(Cl)c(F)c(C(=O)NNS(=O)(=O)c3ccc(=O)[nH]c3)c2)c1 [Compound I-381]	10 to 50	< 10	< 10	10 to 50				
CNc1ccc(S(=O)(=O)NNC(=O)c2cc(-c3cn(C)cn3)cc(Cl)c2F)cc1 [Compound I-382]	10 to 50	< 10	< 10	> 100				
Cn1cnc(-c2cc(Cl)c(F)c(C(=O)NNS(=O)(=O)CC3CCc4ccccc4C3)c2)c1 (stereo not drawn) [Compound I-383]	< 10	< 10	< 10	10 to 50				
Cn1cnc(-c2cc(Cl)c(F)c(C(=O)NNS(=O)(=O)CC3CCCCC3O)c2)c1 (stereo not drawn) [Compound I-384]	< 10	10 to 50	< 10	50 to 100				
CNc1ccccc1S(=O)(=O)NNC(=O)c1cc(-c2cn(C)cn2)cc(Cl)c1F [Compound I-385]	< 10	< 10	< 10	> 100				
COC1CCC(CS(=O)(=O)NNC(=O)c2cc(-c3cn(C)cn3)cc(Cl)c2F)C1 (stereo not drawn) [Compound I-387]	< 10	< 10	< 10	50 to 100				
Cn1cnc(-c2cc(Cl)c(F)c(C(=O)NNS(=O)(=O)C[C@H]3CCCO3)c2)c1 [Compound I-388]	< 10	< 10	< 10	> 100				
Cn1cnc(-c2cc(Cl)c(F)c(C(=O)NNS(=O)(=O)C[C@@H]3CCCO3)c2)c1 [Compound I-389]	< 10	< 10	< 10	> 100				
Cc1cc(-c2ccccc2)cc(C(=O)NNS(=O)(=O)CC2CCCNC2)c1F (stereo not drawn) [D, reference compound]					10 to 50	> 100	> 100	> 100
